Where two headings read alike, the source gives them in different places.
Experiments:
cancer stem cells = assay: Survival rate of cancer stem cells after test compound is added (flow cytometry, Annexin V-FITC/PI, clinical specimen); assay type: cell-based, patient; details: Homo sapiens, 18 h
Description: (§1) Take fresh or cryopreserved clinical specimen (acute myelogenous leukemia (AML, marker is CD34^+/CD38^+), chronic myelogenous leukemia (CML, Ph+/CD34+/CXCR4+), chronic lymphocytic leukemia (CLL,CD133+/CD19−/CD38−), skin cancer (CD34+), breast cancer (CD44+/CD24−/ESA+), ovarian cancer (CD44+/CD117+), brain tumor (CD133+) prostate cancer (CD44+/CD24−), head-neck squamous cell carcinoma (CD44+), laryngeal cancer (CD133+), pancreatic cancer (ESA+/CD44+/CD24+), retinoblastoma (ABCG2/ALDH1), Children hepatoblastoma (CD34+/THY1+/c-kit+), liver cancer (CD133+), malignant melanoma (CD133+), colorectal cancer (EpCAM^high/CD44+), colon adenocarcinoma (CD44^high), glioma (ABCG-2/BCRP1), gastrointestinal tumor (ABCG-2/BCRP1), nasopharynx cancer (ABCG2), brain glioma (Dlk-1/Pref-1), gastric cancer (CD45+), lung adenocarcinoma (Sca-1/CD45-/Pecam-/CD34+), lung cancer (CD133+CD34+CD44+)) of patient. Take the acute myelogenous leukemia as the example, conduct density gradient centrifugation with Ficoll and take out the middle mononuclear cells, re-suspend it with serum-free IMDM after centrifuged. Adjust the concentration of cells into 1×10^6/mL and lay 24-well plate with 1 mL in each well, and then treat 18 hours with the compound to select with corresponding concentration. Collect the cells and centrifuge them at 1500 rps for 8 minutes, re-suspend the precipitation with […], mark the antibodies related to leukemia stem cell, avoid light to incubate 30 minutes at room temperature and then centrifuge it at 1500 rps, then wash away the unbound antibody CD34^+CD38^+. Re-suspend it with 100 μl 1× Binding Buffer and add respectively 5 μl Annexin V-FITC and PI, then avoid light to incubate 15 minutes before add 200 μl 1× Binding Buffer, then use flow cytometry to examine the marked apoptosis within one hour.

normal cells = assay: Survival rate of normal cells after test compound is added (flow cytometry, Annexin V-FITC/PI); assay type: cell-based; details: 18 h
Description: as §1

[1] = test system: PGE2 secreted by synoviocyte; assay: Content of PGE2 in culture supernatant of synoviocyte of RA model rats given test compound; assay type: in vivo; details: rat RA model, dose 30 mg/kg.2d; normal control 8.34 ± 1.29, NaCl 32.44 ± 10.32
Description: (§2) Take Compound 1-50 prepared as per the method according to the present invention and employ the method provided in Reference to prepare model, group drugs and prepare culture supernatant of rat synoviocyte.
(§3) Employ the method provided in Reference to investigate the effects of the test compounds on the synoviocyte to secrete TNF-α and PGE2. Employ the method provided in Reference to investigate the effects of the test compounds on the synoviocyte to secrete IL-1β.
(§4) The experimental data of the test compound 1-50 at a dose of 30 mg/kg.2d as well as the normal control and NaCl group are as follows: […]

[2] = test system: IL-1β secreted by synoviocyte; assay: Content of IL-1β in culture supernatant of synoviocyte of RA model rats given test compound; assay type: in vivo; details: rat RA model, dose 30 mg/kg.2d; normal control 0.16 ± 0.034, NaCl 0.49 ± 0.136
Description: as §2, §3, §4

[3] = test system: TNF-α secreted by synoviocyte; assay: Content of TNF-α in culture supernatant of synoviocyte of RA model rats given test compound; assay type: in vivo; details: rat RA model, dose 30 mg/kg.2d; normal control 0.38 ± 0.027, NaCl 0.74 ± 0.098
Description: as §2, §3, §4

[4] = Head and neck squamous cell carcinomas
[5] = read-out: Survival rate (%) All cells (Stem cells and ordinary cells)
[6] = read-out: Survival rate (%) Stem cells

In the case of `C=C1C(=O)O[C@H]2[C@H]1CC[C@@](C)(OC)C1CC[C@@](C)(O)[C@@H]12` (some centres unmarked) [Compound 47], the viability at 10 µM (cancer stem cells; AML) is reported as 79%, the viability at 20 µM (cancer stem cells; AML) is reported as 73% and the viability at 10 µM (cancer stem cells; Brain glioma) is reported as 85%. It also gave a viability at 20 µM (cancer stem cells; Brain glioma) of 79%, a viability at 10 µM (cancer stem cells; Brain tumor) of 81% and a viability at 20 µM (cancer stem cells; Brain tumor) of 75%. The viability at 10 µM (cancer stem cells; Breast cancer) was 82%, the viability at 20 µM (cancer stem cells; Breast cancer) was 73% and the viability at 10 µM (cancer stem cells; CLL) was 82%. It also gave a viability at 20 µM (cancer stem cells; CLL) of 73%, a viability at 10 µM (cancer stem cells; CML) of 85% and a viability at 20 µM (cancer stem cells; CML) of 77%. The viability at 10 µM (cancer stem cells; Children hepatoblastoma) was 85%, the viability at 20 µM (cancer stem cells; Children hepatoblastoma) was 79% and the viability at 10 µM (cancer stem cells; Colon adenocarcinoma) was 88%. For the same molecule, the viability at 20 µM (cancer stem cells; Colon adenocarcinoma) was 81%, the viability at 10 µM (cancer stem cells; Colorectal cancer) was 79% and the viability at 20 µM (cancer stem cells; Colorectal cancer) was 72%. The viability at 10 µM (cancer stem cells; Gastric cancer) was 82%, the viability at 20 µM (cancer stem cells; Gastric cancer) was 76% and the viability at 10 µM (cancer stem cells; Gastrointestinal tumor) was 78%. The viability at 20 µM (cancer stem cells; Gastrointestinal tumor) was 74%, the viability at 10 µM (cancer stem cells; Glioma) was 87% and the viability at 20 µM (cancer stem cells; Glioma) was 76%. The viability at 10 µM (cancer stem cells; [4]) was 86%, the viability at 20 µM (cancer stem cells; [4]) was 78% and the viability at 10 µM (cancer stem cells; Laryngeal cancer) was 85%. For the same molecule, the viability at 20 µM (cancer stem cells; Laryngeal cancer) was 79%, the viability at 10 µM (cancer stem cells; Liver cancer) was 82% and the viability at 20 µM (cancer stem cells; Liver cancer) was 73%. It also gave a viability at 10 µM (cancer stem cells; Lung adenocarcinoma) of 85%, a viability at 20 µM (cancer stem cells; Lung adenocarcinoma) of 77% and a viability at 10 µM (cancer stem cells; Lung cancer) of 85%. The viability at 20 µM (cancer stem cells; Lung cancer) was 79%, the viability at 10 µM (cancer stem cells; Malignant melanoma) was 82% and the viability at 20 µM (cancer stem cells; Malignant melanoma) was 76%. The viability at 10 µM (cancer stem cells; Nasopharynx cancer) was 82%, the viability at 20 µM (cancer stem cells; Nasopharynx cancer) was 74% and the viability at 10 µM (cancer stem cells; Ovarian cancer) was 84%. It also gave a viability at 20 µM (cancer stem cells; Ovarian cancer) of 78%, a viability at 10 µM (cancer stem cells; Pancreatic cancer) of 84% and a viability at 20 µM (cancer stem cells; Pancreatic cancer) of 78%. The viability at 10 µM (cancer stem cells; Prostate cancer) was 85%, the viability at 20 µM (cancer stem cells; Prostate cancer) was 77% and the viability at 10 µM (cancer stem cells; Retinoblastoma) was 81%. It also gave a viability at 20 µM (cancer stem cells; Retinoblastoma) of 75%, a viability at 10 µM (cancer stem cells; Skin cancer) of 84% and a viability at 20 µM (cancer stem cells; Skin cancer) of 78%. The viability at 10 µM (normal cells; [5]) was 95%, the viability at 10 µM (normal cells; [6]) was 93% and the viability at 20 µM (normal cells; [5]) was 94%. The viability at 20 µM (normal cells; [6]) was 92%, the “Content of PGE2 in culture supernatant of synoviocyte (x ± s)” value [1] was 27.95 ± 3.67 ng/mL and the “Content of IL-1β in culture supernatant of synoviocyte (x ± s)” value [2] was 0.34 ± 0.058 ng/mL. The “Content of TNF-α in culture supernatant of synoviocyte (x ± s)” value [3] was 0.64 ± 0.062 ng/mL.
`CN(C)C[C@@H]1C(=O)O[C@H]2[C@H]1CCC1(CC1)[C@@H]1CCC3(CC3)[C@H]21` [Compound 35] gave a viability at 10 µM (cancer stem cells; AML) of 82%, a viability at 20 µM (cancer stem cells; AML) of 73% and a viability at 10 µM (cancer stem cells; Brain glioma) of 84%. The viability at 20 µM (cancer stem cells; Brain glioma) was 78%, the viability at 10 µM (cancer stem cells; Brain tumor) was 81% and the viability at 20 µM (cancer stem cells; Brain tumor) was 75%. It also gave a viability at 10 µM (cancer stem cells; Breast cancer) of 86%, a viability at 20 µM (cancer stem cells; Breast cancer) of 78% and a viability at 10 µM (cancer stem cells; CLL) of 81%. For the same molecule, the viability at 20 µM (cancer stem cells; CLL) was 75%, the viability at 10 µM (cancer stem cells; CML) was 84% and the viability at 20 µM (cancer stem cells; CML) was 78%. It also gave a viability at 10 µM (cancer stem cells; Children hepatoblastoma) of 87%, a viability at 20 µM (cancer stem cells; Children hepatoblastoma) of 76% and a viability at 10 µM (cancer stem cells; Colon adenocarcinoma) of 84%. The viability at 20 µM (cancer stem cells; Colon adenocarcinoma) was 78%, the viability at 10 µM (cancer stem cells; Colorectal cancer) was 82% and the viability at 20 µM (cancer stem cells; Colorectal cancer) was 73%. The viability at 10 µM (cancer stem cells; Gastric cancer) was 85%, the viability at 20 µM (cancer stem cells; Gastric cancer) was 77% and the viability at 10 µM (cancer stem cells; Gastrointestinal tumor) was 85%. For the same molecule, the viability at 20 µM (cancer stem cells; Gastrointestinal tumor) was 77%, the viability at 10 µM (cancer stem cells; Glioma) was 81% and the viability at 20 µM (cancer stem cells; Glioma) was 75%. It also gave a viability at 10 µM (cancer stem cells; [4]) of 82%, a viability at 20 µM (cancer stem cells; [4]) of 73% and a viability at 10 µM (cancer stem cells; Laryngeal cancer) of 82%. For the same molecule, the viability at 20 µM (cancer stem cells; Laryngeal cancer) was 76%, the viability at 10 µM (cancer stem cells; Liver cancer) was 84% and the viability at 20 µM (cancer stem cells; Liver cancer) was 74%. For the same molecule, the viability at 10 µM (cancer stem cells; Lung adenocarcinoma) was 82%, the viability at 20 µM (cancer stem cells; Lung adenocarcinoma) was 73% and the viability at 10 µM (cancer stem cells; Lung cancer) was 84%. For the same molecule, the viability at 20 µM (cancer stem cells; Lung cancer) was 78%, the viability at 10 µM (cancer stem cells; Malignant melanoma) was 87% and the viability at 20 µM (cancer stem cells; Malignant melanoma) was 75%. For the same molecule, the viability at 10 µM (cancer stem cells; Nasopharynx cancer) was 86%, the viability at 20 µM (cancer stem cells; Nasopharynx cancer) was 78% and the viability at 10 µM (cancer stem cells; Ovarian cancer) was 84%. The viability at 20 µM (cancer stem cells; Ovarian cancer) was 78%, the viability at 10 µM (cancer stem cells; Pancreatic cancer) was 79% and the viability at 20 µM (cancer stem cells; Pancreatic cancer) was 72%. The viability at 10 µM (cancer stem cells; Prostate cancer) was 85%, the viability at 20 µM (cancer stem cells; Prostate cancer) was 79% and the viability at 10 µM (cancer stem cells; Retinoblastoma) was 88%. For the same molecule, the viability at 20 µM (cancer stem cells; Retinoblastoma) was 81%, the viability at 10 µM (cancer stem cells; Skin cancer) was 85% and the viability at 20 µM (cancer stem cells; Skin cancer) was 77%. It also gave a viability at 10 µM (normal cells; [5]) of 95%, a viability at 10 µM (normal cells; [6]) of 91% and a viability at 20 µM (normal cells; [5]) of 94%. The viability at 20 µM (normal cells; [6]) was 90%, the “Content of PGE2 in culture supernatant of synoviocyte (x ± s)” value [1] was 21.54 ± 1.32 ng/mL and the “Content of IL-1β in culture supernatant of synoviocyte (x ± s)” value [2] was 0.41 ± 0.056 ng/mL. The “Content of TNF-α in culture supernatant of synoviocyte (x ± s)” value [3] was 0.57 ± 0.057 ng/mL.
